We go through 4 molecules from US20020160968A1, “Inhibitors of cellular niacinamide mononucleotide formation and their use in cancer therapy” (Klinge Pharma GmbH, priority 1999, published 2002).

Common to all, as to format: cell-based, human
Experiment [1] concerns NAD(P) synthesis from niacinamide in HepG2 cells. The experiment can be described thus: Determination of NAD(P) synthesis from [14C]niacinamide in HepG2 cells. Particulars: for inhibition at 10 µM / activity at 10 µM: Homo sapiens; for inhibition at 10 µM: read-out: Cellular NAD synthesis inhibition [%]; for activity at 10 µM / NAD(P) pmol/10^6 cells / NAD(P) pmol/mg protein: Table 3a, compound 10^-5 M; for activity at 10 µM: read-out: NAD(P) % of Control; for NAD(P) pmol/10^6 cells: 17 hrs pre-incubation, control 302.1; for NAD(P) pmol/mg protein: control 186.4. An excerpt:
The effect of the compounds on the synthesis of NAD(P) starting from niacinamide was investigated using for example the tumor cell line HepG2 according to the technique described in the experimental part below.
The inhibition of the NAD(P) synthesis from niacinamide by these compounds was investigated in HepG2 cells as described in the section “Material and Methods”. The compounds of Table 3 a were used at a concentration of 10^−5 M. The compounds of Table 3 b were used at concentrations of at least 10^−5 M, except for Doxorubicin where the concentration was 0.3×10^−5 M. As a control, vehicle treated or untreated cells were used.
In these experiments, a pre-incubation period of 17 hrs with the compounds was used, but it turned out that the pre-incubations period could be shortened, for example to 2 hrs, or skipped completely without affecting the inhibition profile. […] Similar results were obtained with the other specific compounds.
For the detection of specific inhibitors of niacinamide mononucleotide formation the following screening assay is especially useful which comprises the following steps: incubating cultured cells selected from HepG2 cells, U-87 MG cells, MCF-7 M1 cells, Caki-1 cells, HL-60 cells, PC3 cells, U-373 MG cells, A549 cells and KG-1a cells in the presence of [^14C]niacinamide and a compound to be tested for its activity to inhibit the cellular formation of niacinamide mononucleotide; effecting lysis of the cells; isolating and separating the [^14C]-labeled compounds and measuring the amount of formed labeled niacinamide mononucleotide, NAD and NADP. More concretely, cultured cells are seeded in a defined density in culture dishes, followed by incubation in the presence of a test compound and by the addition of [^14C]niacinamide for about 0.1 to 6 hrs. The cells are then lysed with perchloric acid and the resulting extract is neutralized. Finally, the [^14C]-labeled compounds are separated by thin-layer chromatography on cellulose matrices followed by UV detection and autoradiography. Non-radioactive niacinamide derivatives are used as standards. This assay allows simple and effective screening and selection of the compounds according to the invention.
Determination of NAD(P) Synthesis from [^14C]Niacinamide
The cells were detached from 75 cm^2 flasks by removing the growth medium and adding 3 ml trypsin/EDTA solution to each flask. After about 5 minutes incubation at 37° C., when the cells were detached from the surface of the dishes, trypsinization was stopped by adding 3 ml Richter's IMEM-ZO medium containing 10% FCS. The cells were suspended by repeated pipetting. For predilution, an aliquot of 20 μl was added to 10 ml Casyton isotonic solution (No. 043-90037P, Schärfe System, Reutlingen, Germany) using a Sysmex Auto Dilutor Type AD-260 (Toa, Medical Electronics Co. Ltd., Kobe, Japan). The cell number was determined by electronic cell volume measurements and counting with a CASY 1 Cell Counter+Analyzer System, Model TTC (Schärfe System, Reutlingen, Germany) equipped with a 60 μm capillary. Following dilution in IMEM-ZO containing 10% FCS, the cells were finally seeded at a density of 4×10^6/10 ml per sample in Ø 10 cm tissue culture dishes (Greiner, Frickenhausen, Germany) and incubated at 37° C. in a humidified atmosphere of 5% CO2 in air.
After one day, when the cells were adherent to the dishes, the cultures were replenished with IMEM-ZO containing 5% FCS plus the test compound or the vehicle. […] The cells were then incubated at 37° C. for 17 hours in a humidified atmosphere of 5% CO2 in air. This preincubation period is not necessary to achieve a distinct inhibitory action of the compounds and can be shortened for example to 2 or 0 hours. After this period of time, the medium was again discarded and 4 ml HEPES-buffered IMEM-ZO containing the test compound or the vehicle and 0.5 μCi/ml [^14C]niacinamide were added to each culture for an additional 5 hours at 37° C. and 100% humidity. […]

In a further experiment the test system is HepG2 cells. Kind of experiment: Cell growth under high-density conditions (SRB assay), delayed cell death (DCD). Particulars: Homo sapiens, high density HepG2 cultures.
The test system of another experiment is Hep G2 cells. Kind of experiment: Nicotinamide Reversibility Assay / cell growth inhibition of Hep G2 cells (SRB, six days). The note with it: for IC50: Homo sapiens, HepG2, 144 h, six days of compound incubation, SRB, read-out: Cell growth inhibition IC50-values [μM] Hep G2. Here is the method: Nicotinamide Reversibility Assay
Hep G2 cells derived from a human liver carcinoma were plated at a density of 20,000 cells/ml in 12-well plastic dishes. Cultivation occurred in Richters IMEM-ZO nutrient medium with 5% fetal calf serum (FCS) in a tissue culture incubator with a gas mixture of 5% CO2 and 95% air at a temperature of 37° C. One day after plating, the culture medium was aspirated from the cells and replaced by fresh medium which contained the respective concentrations of the test compounds and where applicable of the nicotinamide. For the individual concentrations and the controls without test compounds, three-fold batches were done for each. Three days after the beginning of treatment, the medium was again renewed with the test compounds and where applicable the nicotinamide. After six days of compound incubation, the test was ended and the protein amount in the individual wells was determined with the sulforhodamin-B-method (according. to P. Skehan et al.: New Colorimetric Cytotoxicity Assay for Anticancer-Drug Screening. J. Natl. Cancer Inst. 82: 1107-1112, 1990). The IC50-values were taken from the dose-response curves and given as a comparative measurement for the activity of the test compounds.

Setting [2] is: minimum concentration which, despite initial growth, induced cell death below the number of initially seeded cells, Table 2.

As a reminder, the inhibition is the percentage by which the read-out fell short of the control. Broadly, the minimal effective concentration is the lowest level tested that produced the effect sought. Usually IC50 stands for the concentration needed to halve the response being measured. As to `O=C(NCCCCC1CCN(C(=O)N2c3ccccc3CCc3ccccc32)CC1)Nc1cccnc1` [Compound K22387, 1-{4-[1-(1,11-dihydro-dibenzene[b,f]azepine-5-carbonyl)-piperidine-4-yl]-butyl}-3-pyridine-3-yl-urea], in experiment [1], the inhibition at 10 µM amounted to 99%, the activity at 10 µM came to 0.9%, the “NAD(P) pmol/10^6 cells” value is recorded as 2.6 pmol/10^6 cells and the “NAD(P) pmol/mg protein” value was 1.6 pmol/mg protein. The minimal effective concentration in the experiment on HepG2 cells (Table 5) was determined as 0.01 µM. Moreover, the minimal effective concentration in the experiment on HepG2 cells (setting [2]) worked out at 0.01 µM. Moreover, in the experiment on Hep G2 cells (Hep G2), the “Influence of the addition of nicotinamide on the action on cell growth (FIGS. 20 to 27)” value is “can be antagonized” and the IC50 amounted to 0.002 µM. The “Reversal by Niacinamide” value in the experiment with Hep G2 cells (Hep G2 cell growth inhibition with added nicotinamide) was “yes”.
With `NC(Cc1ccc(O)c(N=Nc2ccccc2C(=O)N2CCC(CCCCNC(=O)/C=C/c3cccnc3)CC2)c1)C(=O)O` (stereo not drawn) [Compound K22408, 2-amino-3-[4-hydroxy-3-(2-{4-[4-(3-pyridine-3-yl-acryloyl-amino)-butyl]-piperidine-1-carbonyl}-phenylazo)-phenyl]-propanoic acid trihydrate], in experiment [1], the inhibition at 10 µM is 98%, the activity at 10 µM amounted to 1.6%, the “NAD(P) pmol/10^6 cells” value is reported as 4.9 pmol/10^6 cells and the “NAD(P) pmol/mg protein” value is listed as 3.0 pmol/mg protein. Further, the minimal effective concentration with HepG2 cells (Table 5) is 1 µM. Moreover, the minimal effective concentration in the experiment with HepG2 cells (setting [2]) came to 1 µM. Moreover, the IC50 in the experiment on Hep G2 cells (Hep G2) amounted to 0.2 µM.
Turning to `Cn1c(CCNC(=O)/C=C/c2cccnc2)ccc1CN1CCN(C(c2ccccc2)c2ccccc2)CC1` [Compound K22350, N-{2-[5-(4-benzhydryl-piperazine-1-yl-methyl)-1-methyl-1H-pyrrole-2-yl]-ethyl}-3-pyridine-3-yl-acrylamide], in experiment [1], the inhibition at 10 µM stood at 99%, the activity at 10 µM stood at 0.9%, the “NAD(P) pmol/10^6 cells” value turned out to be 2.7 pmol/10^6 cells and the “NAD(P) pmol/mg protein” value turned out to be 1.7 pmol/mg protein. In the experiment on HepG2 cells (Table 5), this molecule had a minimal effective concentration of 1 µM. This molecule also had a minimal effective concentration with HepG2 cells (setting [2]) of 1 µM. Also, in the experiment on Hep G2 cells (Hep G2), the 50% inhibitory concentration (IC50) was 0.7 µM.
Regarding `O=C(NCCCCC1CCN(S(=O)(=O)c2ccc3ccccc3c2)CC1)Nc1cccnc1` [Compound K22365, 1-{4-[1-(naphthalene-2-sulfonyl)-piperidine-4-yl)-butyl}-3-pyridine-3-yl-urea], the inhibition at 10 µM in experiment [1] came to 92%. Further, the minimal effective concentration in the experiment with HepG2 cells (Table 5) and in the experiment on HepG2 cells (setting [2]) was 3 µM throughout. Also, the IC50 with Hep G2 cells (Hep G2) came to 0.6 µM.
